Species on record: Rattus norvegicus
Experiment: Open TG-GATES - Regimen: Daily Repeat
Type: toxicity, organism-based, Sprague-Dawley
Design: regimen Daily Repeat, gender Male, age 6 weeks
Conditions: in vivo, po, 0 mg/kg, route gavage, dose level Control; for APTT / Bas / Eos / Fbg / Hb / Ht / Lym / MCH / MCHC / MCV / Mono / Neu / PT / Plat / RBC / Ret / WBC: tissue Blood; for KIDNEY_L / KIDNEY_R / KIDNEY_TOTAL: tissue Kidney; for LIVER: tissue Liver; for A/G / ALP / ALT / AST / BUN / CRE / Ca / Cl / DBIL / GLC / IP / K / LDH / Na / PL / RALB / TBIL / TC / TG / TP / gamma-GTP: tissue Plasma

## NNC(=O)c1ccncc1 [ISONIAZID]
72 h, time 3 day
  TERMINAL_BW: 219.4 g
  APTT: 14.3 s
  Bas: 0.2%
  Eos: 2%
  Fbg: 229.4 mg/dL
  Hb: 13.6 g/dL
  Ht: 40.8%
  Lym: 74%
  MCH: 21.7 pg
  MCHC: 33.2%
  MCV: 65.2 fL
  Mono: 8.8%
  Neu: 15.6%
  PT: 12.1 s
  Plat: 120.9 x10_4/uL
  RBC: 626.2 x10_4/ul
  Ret: 8.2%
  WBC: 101.8 x10_2/uL
  KIDNEY_L: 0.9 g
  KIDNEY_R: 1 g
  KIDNEY_TOTAL: 1.9 g
  LIVER: 11.3 g
  A/G: 1.8
  ALP: 836.8 IU/L
  ALT: 33.6 IU/L
  AST: 61.8 IU/L
  BUN: 19 mg/dL
  CRE: 0.5 mg/dL
  Ca: 10.8 mg/dL
  Cl: 103.8 meq/L
  DBIL: 0.068 mg/dL
  GLC: 209.2 mg/dL
  IP: 7.6 mg/dL
  K: 5.1 meq/L
  LDH: 102 IU/L
  Na: 139.4 meq/L
  PL: 163.4 mg/dL
  RALB: 3.8 g/dL
  TBIL: 0.3 mg/dL
  TC: 85.8 mg/dL
  TG: 110.2 mg/dL
  TP: 6 g/dL
  gamma-GTP: 1.6 IU/L
[…], time 7 day
  TERMINAL_BW: 251.9 g
  APTT: 14.6 s
  Bas: 0%
  Eos: 1%
  Fbg: 235 mg/dL
  Hb: 13.8 g/dL
  Ht: 41.5%
  Lym: 76.8%
  MCH: 21.4 pg
  MCHC: 33.4%
  MCV: 64.2 fL
  Mono: 10.2%
  Neu: 11.6%
  PT: 12 s
  Plat: 127.4 x10_4/uL
  RBC: 646.4 x10_4/ul
  Ret: 6%
  WBC: 108.1 x10_2/uL
  KIDNEY_L: 1.1 g
  KIDNEY_R: 1.1 g
  KIDNEY_TOTAL: 2.2 g
  LIVER: 12.3 g
  A/G: 1.7
  ALP: 884.4 IU/L
  ALT: 33 IU/L
  AST: 56.6 IU/L
  BUN: 19.6 mg/dL
  CRE: 0.5 mg/dL
  Ca: 10.6 mg/dL
  Cl: 105 meq/L
  DBIL: 0.074 mg/dL
  GLC: 223.8 mg/dL
  IP: 8.4 mg/dL
  K: 5 meq/L
  LDH: 115.2 IU/L
  Na: 140.4 meq/L
  PL: 163 mg/dL
  RALB: 3.7 g/dL
  TBIL: 0.3 mg/dL
  TC: 81.6 mg/dL
  TG: 130.2 mg/dL
  TP: 5.9 g/dL
  gamma-GTP: 1.2 IU/L
[…], time 14 day
  TERMINAL_BW: 294 g
  APTT: 16.1 s
  Bas: 0%
  Eos: 1.2%
  Fbg: 224.2 mg/dL
  Hb: 15.1 g/dL
  Ht: 44.9%
  Lym: 78.2%
  MCH: 20.3 pg
  MCHC: 33.5%
  MCV: 60.6 fL
  Mono: 5.5%
  Neu: 14.8%
  PT: 11.8 s
  Plat: 114.6 x10_4/uL
  RBC: 740.8 x10_4/ul
  Ret: 3.9%
  WBC: 109.8 x10_2/uL
  KIDNEY_L: 1.1 g
  KIDNEY_R: 1.1 g
  KIDNEY_TOTAL: 2.2 g
  LIVER: 13.3 g
  A/G: 1.6
  ALP: 783.8 IU/L
  ALT: 29.6 IU/L
  AST: 62 IU/L
  BUN: 19.2 mg/dL
  CRE: 0.6 mg/dL
  Ca: 10.4 mg/dL
  Cl: 106.8 meq/L
  DBIL: 0.002 mg/dL
  GLC: 213.2 mg/dL
  IP: 7.9 mg/dL
  K: 5.1 meq/L
  LDH: 160 IU/L
  Na: 139.4 meq/L
  PL: 151 mg/dL
  RALB: 3.6 g/dL
  TBIL: 0.3 mg/dL
  TC: 76.4 mg/dL
  TG: 144 mg/dL
  TP: 5.9 g/dL
  gamma-GTP: 0.4 IU/L
[…], time 28 day
  TERMINAL_BW: 374.9 g
  APTT: 15.9 s
  Bas: 0%
  Eos: 1.2%
  Fbg: 227.4 mg/dL
  Hb: 15.5 g/dL
  Ht: 46%
  Lym: 85.8%
  MCH: 19.7 pg
  MCHC: 33.8%
  MCV: 58.2 fL
  Mono: 3.2%
  Neu: 9.2%
  PT: 12 s
  Plat: 106.3 x10_4/uL
  RBC: 790.6 x10_4/ul
  Ret: 2.5%
  WBC: 140.8 x10_2/uL
  KIDNEY_L: 1.3 g
  KIDNEY_R: 1.3 g
  KIDNEY_TOTAL: 2.6 g
  LIVER: 15.5 g
  A/G: 1.4
  ALP: 751.6 IU/L
  ALT: 26.8 IU/L
  AST: 56.4 IU/L
  BUN: 19.4 mg/dL
  CRE: 0.5 mg/dL
  Ca: 10 mg/dL
  Cl: 104.6 meq/L
  DBIL: 0.06 mg/dL
  GLC: 208.8 mg/dL
  IP: 7.2 mg/dL
  K: 4.4 meq/L
  LDH: 73.4 IU/L
  Na: 142.2 meq/L
  PL: 141.8 mg/dL
  RALB: 3.6 g/dL
  TBIL: 0.2 mg/dL
  TC: 70.6 mg/dL
  TG: 125.6 mg/dL
  TP: 6.2 g/dL
  gamma-GTP: 1.4 IU/L
